The values that follow come from patent US20100210664A1, “BENZENESULFONAMIDE COMPOUNDS SUITABLE FOR TREATING DISORDERS THAT RESPOND TO MODULATION OF THE DOPAMINE D3 RECEPTOR” (priority 2007, published 2010).

The Ki is the dissociation constant of the complex between target and ligand, obtained from inhibition or displacement.

Each structure is given as a SMILES string. Bounds are passed on as bounds.

Test [1] concerns the target T1, human dopamine D3 receptors (Homo sapiens, UniProt P35462).
T1 construct: expressed in transfected cells; host or cells: HEK-293 cells (membranes)
In words: Dopamine D3 receptor binding, displacement of [125I]-iodosulpride. As to conditions: membranes of HEK-293 cells stably expressing human D3; 0.1 nM [125I]-iodosulpride. The protocol:
(§1) The substance to be tested was either dissolved in methanol/Chremophor® (BASF-AG) or in dimethyl sulfoxide and then diluted with water to the desired concentration.
(§2) Each assay mixture was run in triplicate.
The incubation buffer contained 50 mM tris, 120 mM NaCl, 5 mM KCl, 2 mM CaCl2, 2 mM MgCl2 and 0.1% bovine serum albumin, 10 μM quinolone and 0.1% ascorbic acid (prepared fresh daily). The buffer was adjusted to pH 7.4 with HCl.
(§3) After having been incubated at 25° C. for 60 minutes, the assay mixtures were filtered through a Whatman GF/B glass fiber filter under vacuum using a cell collecting device. The filters were transferred to scintillation viols using a filter transfer system. After 4 ml of Ultima Gold® (Packard) have been added, the samples were shaken for one hour and the radioactivity was then counted in a Beta-Counter (Packard, Tricarb 2000 or 2200CA). The cpm values were converted into dpm using a standard quench series and the program belonging to the instrument.
(§4) The inhibition curves were analyzed by means of iterative nonlinear regression analysis using the Statistical Analysis System (SAS) which is similar to the “LIGAND” program described by Munson and Rodbard.
On the technique in general: In a radioligand displacement assay an active substance lowers the binding of a labelled ligand.

The target in test [2] is T2, human dopamine D2L receptors (long isoform) (Homo sapiens, UniProt P14416).
T2 construct: expressed in transfected cells; host or cells: HEK-293 cells (membranes)
T2 sequence (P14416 whole entry, canonical isoform): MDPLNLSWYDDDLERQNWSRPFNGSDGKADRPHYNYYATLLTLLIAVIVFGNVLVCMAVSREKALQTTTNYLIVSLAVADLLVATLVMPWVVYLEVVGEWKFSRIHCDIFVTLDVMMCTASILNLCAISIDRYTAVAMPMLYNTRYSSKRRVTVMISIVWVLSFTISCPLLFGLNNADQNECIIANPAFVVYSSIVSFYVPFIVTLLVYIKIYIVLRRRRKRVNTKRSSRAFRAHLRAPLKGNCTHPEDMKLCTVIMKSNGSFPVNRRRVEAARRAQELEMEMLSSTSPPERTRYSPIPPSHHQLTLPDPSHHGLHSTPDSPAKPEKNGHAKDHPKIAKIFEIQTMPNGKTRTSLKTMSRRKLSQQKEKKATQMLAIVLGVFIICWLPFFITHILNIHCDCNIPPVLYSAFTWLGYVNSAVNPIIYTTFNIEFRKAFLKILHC
In words: Dopamine D2L receptor binding, displacement of [125I] iodospiperone. Particulars: ratio Ki(D2L)/Ki(D3); HEK-293 membranes. The protocol:
as §1, §2
The incubation buffer contained 50 mM tris, 120 mM NaCl, 5 mM KCl, 2 mM CaCl2, 2 mM MgCl2 and 0.1% bovine serum albumin. The buffer was adjusted to pH 7.4 with HCl.
as §3, §4

T1 sequence (P35462 whole entry): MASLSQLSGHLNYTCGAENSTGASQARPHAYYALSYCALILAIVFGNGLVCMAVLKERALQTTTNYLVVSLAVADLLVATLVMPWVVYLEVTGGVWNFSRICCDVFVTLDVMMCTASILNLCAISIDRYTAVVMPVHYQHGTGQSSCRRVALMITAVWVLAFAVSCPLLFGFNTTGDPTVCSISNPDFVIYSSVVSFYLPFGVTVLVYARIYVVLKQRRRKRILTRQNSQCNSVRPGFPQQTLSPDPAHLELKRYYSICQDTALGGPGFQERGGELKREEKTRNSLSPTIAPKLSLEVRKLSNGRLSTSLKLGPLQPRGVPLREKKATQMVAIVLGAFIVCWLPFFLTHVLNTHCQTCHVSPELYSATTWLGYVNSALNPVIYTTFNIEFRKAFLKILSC

`Cc1nc(N2CCNCC2)c(Br)cc1NS(=O)(=O)c1ccc([C@H](C)CF)cc1` [Example 7, N-(5-Bromo-2-methyl-6-piperazin-1-yl-pyridin-3-yl)-4-((S)-2-fluoro-1-methyl-ethyl)-benzenesulfonamide, reference compound] came in with a Ki in test [1] of under 1000 nM. The “Selectivity vs. D2L, Ki(D2L)/Ki(D3)” value in test [2] is on record as over 10.

`Cc1nc(N2CCNCC2)ccc1NS(=O)(=O)c1ccc(C(C)C(F)F)cc1` (centres unmarked) [Example 8, 4-(2,2-Difluoro-1-methyl-ethyl)-N-(2-methyl-6-piperazin-1-yl-pyridin-3-yl)-benzenesulfonamide] yielded a Ki in test [1] of under 10 nM. Moreover, the “Selectivity vs. D2L, Ki(D2L)/Ki(D3)” value in test [2] is over 50.

Consider `COc1nc(N2CCNCC2)ccc1NS(=O)(=O)c1ccc([C@@H](C)CF)cc1` [Example 14, 4-((R)-2-Fluoro-1-methyl-ethyl)-N-(2-methoxy-6-piperazin-1-yl-pyridin-3-yl)-benzenesulfonamide], for which, in test [1], the Ki was under 10 nM. Also, the “Selectivity vs. D2L, Ki(D2L)/Ki(D3)” value in test [2] is over 50.

Regarding `COc1nc(N2CCNCC2)ccc1NS(=O)(=O)c1ccc([C@H](C)CF)cc1` [Example 15, 4-((S)-2-Fluoro-1-methyl-ethyl)-N-(2-methoxy-6-piperazin-1-yl-pyridin-3-yl)-benzenesulfonamide], the Ki in test [1] was under 10 nM. Moreover, the “Selectivity vs. D2L, Ki(D2L)/Ki(D3)” value in test [2] was over 50.

Molecule `Cc1nc(N2CCNCC2)ccc1NS(=O)(=O)c1ccc([C@@H](C)C(F)(F)F)cc1` [Example 12, 4-((R)-2,2,2-Trifluoro-1-methyl-ethyl)-N-(2-methyl-6-piperazin-1-yl-pyridin-3-yl)-benzenesulfonamide] had a Ki in test [1] of under 10 nM. Also, in test [2], the “Selectivity vs. D2L, Ki(D2L)/Ki(D3)” value was over 50.

As to `Cc1nc(N2CCNCC2)ccc1NS(=O)(=O)c1ccc(C(C)C(F)(F)F)cc1` (centres unmarked) [Example 11, 4-(2,2,2-Trifluoro-1-methyl-ethyl)-N-(2-methyl-6-piperazin-1-yl-pyridin-3-yl)-benzenesulfonamide], the Ki in test [1] is under 10 nM. The “Selectivity vs. D2L, Ki(D2L)/Ki(D3)” value in test [2] is given as over 50.

`Cc1nc(N2CCNCC2)ccc1NS(=O)(=O)c1ccc([C@H](C)C(F)F)cc1` [Example 9, 4-((S)-2,2-Difluoro-1-methyl-ethyl)-N-(2-methyl-6-piperazin-1-yl-pyridin-3-yl)-benzenesulfonamide] showed a Ki in test [1] of under 10 nM. Further, the “Selectivity vs. D2L, Ki(D2L)/Ki(D3)” value in test [2] is listed as over 50.

In test [1], `Cc1nc(N2CCNCC2)ccc1NS(=O)(=O)c1ccc([C@@H](C)CF)cc1` [Example 5, 4-((R)-2-Fluoro-1-methyl-ethyl)-N-[2-methyl-6-piperazin-1-yl-pyridin-3-yl]-benzenesulfonamide] showed a Ki of under 10 nM. The “Selectivity vs. D2L, Ki(D2L)/Ki(D3)” value in test [2] is given as over 50.

For the molecule `Cc1nc(N2CCNCC2)ccc1NS(=O)(=O)c1ccc([C@@H](C)C(F)F)cc1` [Example 10, 4-((R)-2,2-Difluoro-1-methyl-ethyl)-N-(2-methyl-6-piperazin-1-yl-pyridin-3-yl)-benzenesulfonamide], in test [1], the Ki was under 10 nM. Besides, the “Selectivity vs. D2L, Ki(D2L)/Ki(D3)” value in test [2] is recorded as over 50.

On to `Cc1nc(N2CCNCC2)ccc1NS(=O)(=O)c1ccc([C@H](C)C(F)(F)F)cc1` [Example 13, 4-((S)-2,2,2-Trifluoro-1-methyl-ethyl)-N-(2-methyl-6-piperazin-1-yl-pyridin-3-yl)-benzenesulfonamide], for which the Ki in test [1] was under 10 nM. Besides, the “Selectivity vs. D2L, Ki(D2L)/Ki(D3)” value in test [2] is over 50.

`Cc1nc(N2CCNCC2)ccc1NS(=O)(=O)c1ccc([C@H](C)CF)cc1` [Example 6, 4-((S)-2-Fluoro-1-methyl-ethyl)-N-[2-methyl-6-piperazin-1-yl-pyridin-3-yl]-benzenesulfonamide] registered a Ki in test [1] of under 10 nM. The “Selectivity vs. D2L, Ki(D2L)/Ki(D3)” value in test [2] is reported as over 50.

In turn, `Cc1nc(N2CCN[C@@H](C)C2)ccc1NS(=O)(=O)c1ccc([C@H](C)CF)cc1` [Example 1, 4-((S)-2-Fluoro-1-methyl-ethyl)-N-[2-methyl-6-((S)-3-methyl-piperazin-1-yl)-pyridin-3-yl]-benzenesulfonamide] yielded an inhibition constant Ki in test [1] of under 10 nM. Besides, the “Selectivity vs. D2L, Ki(D2L)/Ki(D3)” value in test [2] is on record as over 50.

Molecule `COc1nc(N2CCNCC2)ccc1NS(=O)(=O)c1ccc([C@H](C)C(F)(F)F)cc1` [Example 18, N-(2-Methoxy-6-piperazin-1-yl-pyridin-3-yl)-4-((S)-2,2,2-trifluoro-1-methyl-ethyl)-benzenesulfonamide] yielded a Ki in test [1] of under 10 nM. The “Selectivity vs. D2L, Ki(D2L)/Ki(D3)” value in test [2] is over 50.

`COc1nc(N2CCNCC2)ccc1NS(=O)(=O)c1ccc(C(C)C(F)F)cc1` (centres unmarked) [Example 16, 4-(2,2-Difluoro-1-methyl-ethyl)-N-(2-methoxy-6-piperazin-1-yl-pyridin-3-yl)-benzenesulfonamide]: in test [1], the Ki is under 10 nM. Besides, the “Selectivity vs. D2L, Ki(D2L)/Ki(D3)” value in test [2] was over 50.

For the molecule `Cc1nc(N2CCN[C@@H](C)C2)ccc1NS(=O)(=O)c1ccc([C@@H](C)CF)cc1` [Example 2, 4-((R)-2-Fluoro-1-methyl-ethyl)-N-[2-methyl-6-((S)-3-methyl-piperazin-1-yl)-pyridin-3-yl]-benzenesulfonamide], in test [1], the Ki was under 10 nM. For the same molecule, the “Selectivity vs. D2L, Ki(D2L)/Ki(D3)” value in test [2] is reported as over 50.

As for `COc1nc(N2CCNCC2)ccc1NS(=O)(=O)c1ccc(C(C)C(F)(F)F)cc1` (centres unmarked) [Example 17, N-(2-Methoxy-6-piperazin-1-yl-pyridin-3-yl)-4-(2,2,2-trifluoro-1-methyl-ethyl)-benzenesulfonamide], in test [1], the Ki was under 10 nM. In addition, the “Selectivity vs. D2L, Ki(D2L)/Ki(D3)” value in test [2] is over 50.
